Laboratory results published in patent US20250346592A1 (Celgene Corporation, priority 2022, published 2025).

Target: hPAD4 enzyme (Homo sapiens (Human), UniProt Q9UM07)
Experiment: RFMS2 assay (RapidFire mass spectrometry, TSTGGRQGSHH peptide substrate)
Assay type: biochemical
Conditions: 35 nM recombinant human PAD4, 500 μM TSTGGRQGSHH peptide, 30 minutes at room temperature; read-out: RFMS 2 IC50
Outline: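 IC50 derived from RapidFire LC-MS/MS (positive ESI MRM) of substrate versus product after a 30 min room-temperature reaction stopped with 10% formic acid. Reaction contained 35 nM human PAD4, 500 μM peptide, 2 mM CaCl2, 5 mM DTT at pH 7.4, and compounds diluted 3-fold from 20 μM.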

Sequence of hPAD4 enzyme (Q9UM07 whole entry): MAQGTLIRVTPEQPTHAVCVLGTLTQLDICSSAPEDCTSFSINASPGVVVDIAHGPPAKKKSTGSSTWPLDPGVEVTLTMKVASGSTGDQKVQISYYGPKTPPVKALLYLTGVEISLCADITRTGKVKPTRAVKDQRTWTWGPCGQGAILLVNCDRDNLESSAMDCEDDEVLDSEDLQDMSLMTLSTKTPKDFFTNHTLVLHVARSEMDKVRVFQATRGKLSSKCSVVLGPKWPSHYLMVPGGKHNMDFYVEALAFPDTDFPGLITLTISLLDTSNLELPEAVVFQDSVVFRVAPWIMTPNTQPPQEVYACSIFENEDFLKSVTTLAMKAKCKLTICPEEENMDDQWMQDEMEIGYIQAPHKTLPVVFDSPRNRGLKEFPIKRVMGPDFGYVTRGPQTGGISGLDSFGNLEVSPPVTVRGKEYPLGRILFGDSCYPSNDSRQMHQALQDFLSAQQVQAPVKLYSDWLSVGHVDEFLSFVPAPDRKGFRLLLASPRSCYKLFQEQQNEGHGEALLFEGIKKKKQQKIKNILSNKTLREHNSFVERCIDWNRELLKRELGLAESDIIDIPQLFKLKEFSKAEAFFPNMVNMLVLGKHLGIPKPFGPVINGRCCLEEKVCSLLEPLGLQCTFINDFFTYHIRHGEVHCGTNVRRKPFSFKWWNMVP

C[C@@H](N)CN1CCc2cc3c(cc2C1=O)nc(-c1cc2ccccc2n1CC(C)(C)O)n3C [Example 92, (R)-6-(2-aminopropyl)-2-(1-(2-hydroxy-2-methylpropyl)-1H-indol-2-yl)-1-methyl-1,6,7,8-tetrahydro-5H-imidazo[4,5-g]isoquinolin-5-one] was tested. Which IC50 did it give?
The IC50 was > 1000 nM.

Cn1c(-c2cc3ccccc3n2Cc2ccno2)nc2cc3c(cc21)CCN(C[C@H](N)CF)C3=O [Example 93, (S)-6-(2-amino-3-fluoropropyl)-2-(1-(isoxazol-5-ylmethyl)-1H-indol-2-yl)-1-methyl-1,6,7,8-tetrahydro-5H-imidazo[4,5-g]isoquinolin-5-one] was tested. Which IC50 did it give?
Its IC50 is 101 to 500 nM.

How did the IC50 turn out when COCCn1c(-c2nc3cc4c(cc3n2C)CCN(C[C@H](N)CF)C4=O)cc2ccccc21 [Example 94, (S)-6-(2-amino-3-fluoropropyl)-2-(1-(2-methoxyethyl)-1H-indol-2-yl)-1-methyl-1,6,7,8-tetrahydro-5H-imidazo[4,5-g]isoquinolin-5-one] was run?
The IC50 was 501 to 1000 nM.

For Cn1cc(Cn2c(-c3nc4cc5c(cc4n3C)CCN(C[C@H](N)CF)C5=O)cc3ccccc32)cn1 [Example 95, (S)-6-(2-amino-3-fluoropropyl)-1-methyl-2-(1-((1-methyl-1H-pyrazol-4-yl)methyl)-1H-indol-2-yl)-1,6,7,8-tetrahydro-5H-imidazo[4,5-g]isoquinolin-5-one], which IC50 is on record?
The IC50 was 501 to 1000 nM.

With Cn1nccc1Cn1c(-c2nc3cc4c(cc3n2C)CCN(C[C@H](N)CF)C4=O)cc2ccccc21 [Example 96, (S)-6-(2-amino-3-fluoropropyl)-1-methyl-2-(1-((1-methyl-1H-pyrazol-5-yl)methyl)-1H-indol-2-yl)-1,6,7,8-tetrahydro-5H-imidazo[4,5-g]isoquinolin-5-one] as the compound, how does the IC50 read?
Its IC50 is > 1000 nM.

How did the IC50 turn out when Cc1cc(Cn2c(-c3nc4cc5c(cc4n3C)CCN(C[C@H](N)CF)C5=O)cc3ccccc32)on1 [Example 97, (S)-6-(2-amino-3-fluoropropyl)-1-methyl-2-(1-((3-methylisoxazol-5-yl)methyl)-1H-indol-2-yl)-1,6,7,8-tetrahydro-5H-imidazo[4,5-g]isoquinolin-5-one] was run?
The IC50 was 101 to 500 nM.

Which IC50 does the source give for Cn1c(-c2cc3ccccc3n2Cc2ccon2)nc2cc3c(cc21)CCN(C[C@H](N)CF)C3=O [Example 98, (S)-6-(2-amino-3-fluoropropyl)-2-(1-(isoxazol-3-ylmethyl)-1H-indol-2-yl)-1-methyl-1,6,7,8-tetrahydro-5H-imidazo[4,5-g]isoquinolin-5-one] here?
Its IC50 is > 1000 nM.

How did the IC50 turn out when Cc1nnc(Cn2c(-c3nc4cc5c(cc4n3C)CCN(C[C@H](N)CF)C5=O)cc3ccccc32)o1 [Example 99, (S)-6-(2-amino-3-fluoropropyl)-1-methyl-2-(1-((5-methyl-1,3,4-oxadiazol-2-yl)methyl)-1H-indol-2-yl)-1,6,7,8-tetrahydro-5H-imidazo[4,5-g]isoquinolin-5-one] was run?
The IC50 was > 1000 nM.

Cc1cc(Cn2c(-c3nc4cc5c(cc4n3C)CCN(C[C@H](N)CF)C5=O)cc3ccccc32)no1 [Example 100, (S)-6-(2-amino-3-fluoropropyl)-1-methyl-2-(1-((5-methylisoxazol-3-yl)methyl)-1H-indol-2-yl)-1,6,7,8-tetrahydro-5H-imidazo[4,5-g]isoquinolin-5-one] was tested. Which IC50 did it give?
The IC50 was > 1000 nM.

Cn1c(-c2cc3ccccc3n2CC2CCC2)nc2cc3c(cc21)CCN(C[C@H](N)CF)C3=O [Example 101, (S)-6-(2-amino-3-fluoropropyl)-2-(1-(cyclobutylmethyl)-1H-indol-2-yl)-1-methyl-1,6,7,8-tetrahydro-5H-imidazo[4,5-g]isoquinolin-5-one] was tested. Which IC50 did it give?
The IC50 was 101 to 500 nM.

COCCn1c(-c2nc3cc4c(cc3n2C)CCN(C[C@H](N)CF)C4=O)cc2ccc(OC)cc21 [Example 103, (S)-6-(2-amino-3-fluoropropyl)-2-(6-methoxy-1-(2-methoxyethyl)-1H-indol-2-yl)-1-methyl-1,6,7,8-tetrahydro-5H-imidazo[4,5-g]isoquinolin-5-one] was tested. Which IC50 did it give?
Its IC50 is 501 to 1000 nM.

For COCCn1c(-c2nc3cc4c(cc3n2C)CCN(C[C@H](N)CF)C4=O)cc2ccc(Cl)nc21 [Example 104, (S)-6-(2-amino-3-fluoropropyl)-2-(6-chloro-1-(2-methoxyethyl)-1H-pyrrolo[2,3-b]pyridin-2-yl)-1-methyl-1,6,7,8-tetrahydro-5H-imidazo[4,5-g]isoquinolin-5-one], which IC50 is on record?
Its IC50 is 501 to 1000 nM.

With COCCn1c(-c2nc3cc4c(cc3n2C)CCN(C[C@H](N)CF)C4=O)cc2ccc(OC)nc21 [Example 105, (S)-6-(2-amino-3-fluoropropyl)-2-(6-methoxy-1-(2-methoxyethyl)-1H-pyrrolo[2,3-b]pyridin-2-yl)-1-methyl-1,6,7,8-tetrahydro-5H-imidazo[4,5-g]isoquinolin-5-one] as the compound, how does the IC50 read?
The IC50 was > 1000 nM.

With COCCn1c(-c2nc3cc4c(cc3n2C)CCN(C[C@H](N)CF)C4=O)cc2cccnc21 [Example 106, (S)-6-(2-amino-3-fluoropropyl)-2-(1-(2-methoxyethyl)-1H-pyrrolo[2,3-b]pyridin-2-yl)-1-methyl-1,6,7,8-tetrahydro-5H-imidazo[4,5-g]isoquinolin-5-one] as the compound, how does the IC50 read?
The IC50 was > 1000 nM.

How did the IC50 turn out when CCn1c(-c2nc3cc4c(cc3n2C)CCN(C[C@H](N)CF)C4=O)cc2cccc(OC)c21 [Example 107, (S)-6-(2-amino-3-fluoropropyl)-2-(1-ethyl-7-methoxy-1H-indol-2-yl)-1-methyl-1,6,7,8-tetrahydro-5H-imidazo[4,5-g]isoquinolin-5-one] was run?
Its IC50 is 501 to 1000 nM.

For CCn1c(-c2nc3cc4c(cc3n2C)CCN(C[C@H](N)CF)C4=O)cc2ccc(OC)nc21 [Example 108, (S)-6-(2-amino-3-fluoropropyl)-2-(1-ethyl-6-methoxy-1H-pyrrolo[2,3-b]pyridin-2-yl)-1-methyl-1,6,7,8-tetrahydro-5H-imidazo[4,5-g]isoquinolin-5-one], which IC50 is on record?
Its IC50 is 501 to 1000 nM.

For COc1cccc2cc(-c3nc4cc5c(cc4n3C)CCN(C[C@H](N)CF)C5=O)n(C(C)C)c12 [Example 109], which IC50 is on record?
The IC50 was > 1000 nM.

Which IC50 does the source give for COCCn1c(-c2nc3cc4c(cc3n2C)CCN(C[C@H](N)CF)C4=O)cc2ccnc(OC)c21 [Example 110, (S)-6-(2-amino-3-fluoropropyl)-2-(7-methoxy-1-(2-methoxyethyl)-1H-pyrrolo[2,3-c]pyridin-2-yl)-1-methyl-1,6,7,8-tetrahydro-5H-imidazo[4,5-g]isoquinolin-5-one] here?
The IC50 was > 1000 nM.

For COc1cccc2cc(-c3nc4cc5c(cc4n3C)CCN(C[C@H](N)CF)C5=O)n(Cc3ccno3)c12 [Example 111, (S)-6-(2-amino-3-fluoropropyl)-2-(1-(isoxazol-5-ylmethyl)-7-methoxy-1H-indol-2-yl)-1-methyl-1,6,7,8-tetrahydro-5H-imidazo[4,5-g]isoquinolin-5-one], which IC50 is on record?
The IC50 was 11 to 100 nM.

With COc1ccc2cc(-c3nc4cc5c(cc4n3C)CCN(C[C@H](N)CF)C5=O)n(Cc3ccno3)c2c1 [Example 112, (S)-6-(2-amino-3-fluoropropyl)-2-(1-(isoxazol-5-ylmethyl)-6-methoxy-1H-indol-2-yl)-1-methyl-1,6,7,8-tetrahydro-5H-imidazo[4,5-g]isoquinolin-5-one] as the compound, how does the IC50 read?
The IC50 was 101 to 500 nM.

How did the IC50 turn out when COc1cccc2cc(-c3nc4cc5c(cc4n3C)CCN(C[C@H](N)CF)C5=O)n(Cc3cn(C)cn3)c12 [Example 114, (S)-6-(2-amino-3-fluoropropyl)-2-(7-methoxy-1-((1-methyl-1H-imidazol-4-yl)methyl)-1H-indol-2-yl)-1-methyl-1,6,7,8-tetrahydro-5H-imidazo[4,5-g]isoquinolin-5-one] was run?
Its IC50 is 501 to 1000 nM.

How did the IC50 turn out when COc1cccc2cc(-c3nc4cc5c(cc4n3C)CCN(C[C@H](N)CF)C5=O)n(Cc3cc[nH]n3)c12 [Example 115, (S)-2-(1-((1H-pyrazol-3-yl)methyl)-7-methoxy-1H-indol-2-yl)-6-(2-amino-3-fluoropropyl)-1-methyl-1,6,7,8-tetrahydro-5H-imidazo[4,5-g]isoquinolin-5-one] was run?
Its IC50 is 101 to 500 nM.

For COc1cccc2cc(-c3nc4cc5c(cc4n3C)CCN(C[C@H](N)CF)C5=O)n(Cc3nnco3)c12 [Example 116, (S)-2-(1-((1,3,4-oxadiazol-2-yl)methyl)-7-methoxy-1H-indol-2-yl)-6-(2-amino-3-fluoropropyl)-1-methyl-1,6,7,8-tetrahydro-5H-imidazo[4,5-g]isoquinolin-5-one], which IC50 is on record?
Its IC50 is 101 to 500 nM.

Which IC50 does the source give for COc1cccc2cc(-c3nc4cc5c(cc4n3C)CCN(C[C@H](N)CF)C5=O)n(Cc3cnco3)c12 [Example 117, (S)-6-(2-amino-3-fluoropropyl)-2-(7-methoxy-1-(oxazol-5-ylmethyl)-1H-indol-2-yl)-1-methyl-1,6,7,8-tetrahydro-5H-imidazo[4,5-g]isoquinolin-5-one] here?
Its IC50 is 101 to 500 nM.

Which IC50 does the source give for COc1cccc2cc(-c3nc4cc5c(cc4n3C)CCN(C[C@H](N)CF)C5=O)n(Cc3ccns3)c12 [Example 118, (S)-6-(2-amino-3-fluoropropyl)-2-(1-(isothiazol-5-ylmethyl)-7-methoxy-1H-indol-2-yl)-1-methyl-1,6,7,8-tetrahydro-5H-imidazo[4,5-g]isoquinolin-5-one] here?
Its IC50 is 11 to 100 nM.

Which IC50 does the source give for COc1cccc2cc(-c3nc4cc5c(cc4n3C)CCN(C[C@H](N)CF)C5=O)n(Cc3ncno3)c12 [Example 120, (S)-2-(1-((1,2,4-oxadiazol-5-yl)methyl)-7-methoxy-1H-indol-2-yl)-6-(2-amino-3-fluoropropyl)-1-methyl-1,6,7,8-tetrahydro-5H-imidazo[4,5-g]isoquinolin-5-one] here?
The IC50 was 101 to 500 nM.

Which IC50 does the source give for Cn1c(-c2cc3cccnc3n2Cc2ccno2)nc2cc3c(cc21)CCN(C[C@H](N)CF)C3=O [Example 121, (S)-6-(2-amino-3-fluoropropyl)-2-(1-(isoxazol-5-ylmethyl)-1H-pyrrolo[2,3-b]pyridin-2-yl)-1-methyl-1,6,7,8-tetrahydro-5H-imidazo[4,5-g]isoquinolin-5-one] here?
The IC50 was > 1000 nM.

How did the IC50 turn out when COc1cccc2cc(-c3nc4cc5c(cc4n3C)CCN(C[C@H](N)CF)C5=O)n(Cc3ncc(C)o3)c12 [Example 125, (S)-6-(2-amino-3-fluoropropyl)-2-(7-methoxy-1-((5-methyloxazol-2-yl)methyl)-1H-indol-2-yl)-1-methyl-1,6,7,8-tetrahydro-5H-imidazo[4,5-g]isoquinolin-5-one] was run?
Its IC50 is 101 to 500 nM.
